Test results published in ChEMBL document CHEMBL3751735, “Discovery of 2-(4-sulfonamidophenyl)-indole 3-carboxamides as potent and selective inhibitors with broad hepatitis C virus genotype activity targeting HCV NS4B” (Bioorg Med Chem Lett, 2016).

How the values were obtained:
Hepatitis C virus [1] = test: Antiviral activity against HCV genotype 1b Con1 bicistronic replicon infected in human Huh7 cells assessed as replicon RNA expression measured 3 days post dose by real time RT-PCR analysis; format: functional, organism-based, Hepacivirus hominis; details: isolate Con1, Huh-7, 72 h
[2] = Toxicity against human HuH7 cells harboring HCV genotype 1b bicistronic replicon assessed as inhibition of GAPDH mRNA expression measured 3 days post dose by real time RT-PCR analysis; format: cell-based, Huh-7
[3] = AUC (0 to 6 hrs) in Sprague-Dawley rat plasma at 10 mg/kg, po measured at 30 mins to 6 hrs post dose; format: ADME, organism-based; set-up: dose 10 mg/kg, time < 6 hr, route oral
[4] = Ratio of drug level in liver to plasma in Sprague-Dawley rat at 10 mg/kg, po measured 6 hrs post dose; format: ADME, organism-based; details: liver and plasma
Hepatitis C virus [5] = test: Antiviral activity against HCV genotype 2a JFH-1 infected in human HuH7.5 cells assessed as HCV RNA expression measured 72 hrs post dose by qRT-PCR analysis; format: functional, organism-based, Hepacivirus hominis; details: JFH-1, Huh-7, 72 h
Hepatitis C virus [6] = test: Antiviral activity against HCV genotype 1a H77S bicistronic replicon infected in human Huh7 cells assessed as replicon RNA expression measured 3 days post dose by real time RT-PCR analysis; format: functional, organism-based, Hepacivirus hominis; details: Huh-7, 72 h
Hepatitis C virus [7] = test: Antiviral activity against HCV genotype 3a S52/SG-Feo(SH) infected in human HuH7.5 cells measured 3 days post dose by Luciferase assay; format: functional, organism-based, Hepacivirus hominis; details: Huh-7, 72 h

Row | SMILES | EC50 (Hepatitis C virus [1]) | IC50 at 3 days [2] | AUC(0-t) at 6 h [3] | Kp at 6 h [4] | EC50 (Hepatitis C virus [5]) | EC50 (Hepatitis C virus [6]) | EC50 (Hepatitis C virus [7])
1 | Cc1cc(NS(=O)(=O)C(C)(C)C)ccc1-c1c(C(N)=O)c2cc(F)c(OC(F)F)cc2n1-c1ccccc1 | 2 nM | > 10000 nM |  |  |  |  | 
2 | CCc1cc2c(cc1F)c(C(N)=O)c(-c1ccc(NS(=O)(=O)C(C)C)cc1)n2C1CCCC1 | 68 nM | > 10000 nM |  |  |  |  | 
3 | CC(C)(C)S(=O)(=O)Nc1ccc(-c2c(C(N)=O)c3cc(F)c(OC(F)F)cc3n2C2CCCCC2)c(Cl)c1 | 2 nM | > 10000 nM | 2.1 µM·h | 115 | 28 nM | < 1 nM | 0.2 nM
4 | Cc1cc2c(cc1F)c(C(N)=O)c(-c1ccc(NS(=O)(=O)C(C)(C)C)cc1)n2C1CCCC1 | 39 nM | > 10000 nM | 0.457 µM·h | 15 | 10 nM | 20 nM | 317 nM
5 | CCc1cc2c(cc1F)c(C(N)=O)c(-c1ccc(NS(=O)(=O)C(C)(C)C)cc1)n2C1CCCC1 | 7 nM | > 10000 nM | 4.12 µM·h | 27 | 20 nM | 130 nM | 115 nM
6 | CC(C)(C)S(=O)(=O)Nc1ccc(-c2c(C(N)=O)c3cc(F)c(OC(F)F)cc3n2C2CCCC2)cc1 | 5 nM | > 10000 nM | 0.382 µM·h | 47 | 6 nM | 4 nM | 20 nM
7 | CC(C)(C)S(=O)(=O)Nc1ccc(-c2c(C(N)=O)c3cc(F)c(OC(F)F)cc3n2C2CCCCC2)cc1F | 3 nM | > 1000 nM |  |  |  |  | 
8 | CC(C)(C)S(=O)(=O)Nc1ccc(-c2c(C(N)=O)c3cc(F)c(OC(F)F)cc3n2-c2ccccc2)cc1F | 12 nM | > 1100 nM |  |  |  |  | 
9 | CC(C)(C)S(=O)(=O)Nc1ccc(-c2c(C(N)=O)c3cc(F)c(OC(F)F)cc3n2C2CCCCC2)cc1Cl | 305 nM | > 1000 nM |  |  |  |  | 
10 | CC(C)(C)S(=O)(=O)Nc1ccc(-c2c(C(N)=O)c3cc(F)c(OC(F)F)cc3n2C2CCCCC2)cn1 | 6 nM | > 10000 nM | 0.204 µM·h | 332 | 380 nM | 10 nM | 119 nM
11 | Cc1cc2c(cc1F)c(C(N)=O)c(-c1ccc(NS(=O)(=O)C(C)(C)C)cc1)n2C1CCOCC1 | 17 nM | > 10000 nM |  |  |  |  | 
12 | CC(C)(C)S(=O)(=O)Nc1ccc(-c2c(C(N)=O)c3c(F)cc(C(F)F)cc3n2C2CCCC2)cc1 | 4 nM | > 10000 nM |  |  |  |  | 
13 | COc1cc2c(cc1F)c(C(N)=O)c(-c1ccc(NS(=O)(=O)C(C)(C)C)cc1)n2C1CCCC1 | 59 nM | > 10000 nM |  |  |  |  | 
14 | CCc1cc2c(cc1F)c(C(N)=O)c(-c1cnc(NS(=O)(=O)C(C)(C)C)nc1)n2C1CCCCC1 | 2100 nM | > 10000 nM |  |  |  |  | 
15 | Cc1cc2c(cc1F)c(C(N)=O)c(-c1ccc(NS(=O)(=O)C(C)(C)C)cc1)n2-c1cccnc1 | 180 nM | > 10000 nM |  |  |  |  | 
16 | CC(C)c1cc2c(cc1F)c(C(N)=O)c(-c1ccc(NS(=O)(=O)C(C)(C)C)cc1)n2C1CCCC1 | 170 nM | > 10000 nM |  |  |  |  | 
17 | Cc1cc(-c2c(C(N)=O)c3cc(F)c(OC(F)F)cc3n2-c2ccccc2)ccc1NS(=O)(=O)C(C)(C)C | 120 nM | > 10000 nM |  |  |  |  | 
18 | CCc1cc2c(cc1F)c(C(N)=O)c(-c1ccc(NS(=O)(=O)C(C)(C)C)cc1)n2C1CCCCC1 | 4 nM | > 10000 nM |  |  |  |  | 
19 | CC(C)(C)S(=O)(=O)Nc1ccc(-c2c(C(N)=O)c3cc(F)c(OC(F)F)cc3n2C2CCCC2)c(F)c1 | 2 nM | > 10000 nM | 0.37 µM·h |  | 6 nM | 10 nM | 

Row | SMILES | EC50 (Hepatitis C virus [1]) | IC50 at 3 days [2] | AUC(0-t) at 6 h [3] | Kp at 6 h [4] | EC50 (Hepatitis C virus [5]) | EC50 (Hepatitis C virus [6]) | EC50 (Hepatitis C virus [7])
20 | Cc1cc(F)c2c(C(N)=O)c(-c3ccc(NS(=O)(=O)C(C)(C)C)cc3)n(C3CCCC3)c2c1 | 34 nM | > 10000 nM |  |  |  |  | 
21 | Cc1cc2c(cc1F)c(C(N)=O)c(-c1ccc(NS(=O)(=O)C(C)(C)C)cc1)n2C1CCC1 | 45 nM | > 10000 nM | 1.45 µM·h | 15 | 10 nM | 90 nM | 348 nM
22 | CCOc1cc2c(cc1F)c(C(N)=O)c(-c1ccc(NS(=O)(=O)C(C)(C)C)cc1)n2C1CCCC1 | 150 nM | > 10000 nM |  |  |  |  | 
23 | Cc1cc2c(cc1F)c(C(N)=O)c(-c1ccc(NS(=O)(=O)C(C)(C)C)cc1)n2-c1ccncc1 | 68 nM | > 10000 nM |  |  |  |  | 
24 | Cc1cc(-c2c(C(N)=O)c3cc(F)c(OC(F)F)cc3n2C2CCCCC2)ccc1NS(=O)(=O)C(C)(C)C | 36 nM | > 1000 nM |  |  |  |  | 
25 | Cc1cc2c(cc1F)c(C(N)=O)c(-c1ccc(NS(=O)(=O)C(C)(C)C)cc1)n2C1CCCCC1 | 2 nM | > 10000 nM | 0.685 µM·h | 11 | 135 nM | 8 nM | 80 nM
26 | CCCc1cc2c(cc1F)c(C(N)=O)c(-c1ccc(NS(=O)(=O)C(C)(C)C)cc1)n2C1CCCC1 | 1800 nM | 10000 nM |  |  |  |  | 
27 | Cc1cc2c(cc1F)c(C(N)=O)c(-c1ccc(NS(=O)(=O)C(C)C)cc1)n2C1CCCC1 | 56 nM | > 10000 nM |  |  |  |  | 
28 | CCCS(=O)(=O)Nc1ccc(-c2c(C(N)=O)c3cc(F)c(C)cc3n2C2CCCC2)cc1 | 870 nM | > 10000 nM |  |  |  |  | 
29 | CCc1cc2c(cc1F)c(C(N)=O)c(-c1ccc(NS(=O)(=O)C(C)(C)C)nc1)n2C1CCCCC1 | 19 nM | > 10000 nM |  |  |  |  | 
30 | CC(C)(C)S(=O)(=O)Nc1ccc(-c2c(C(N)=O)c3cc(F)c(OC(F)F)cc3n2-c2ccccc2)cc1 | 2 nM | > 1100 nM | 14.4 µM·h | 26 | 62 nM | 2 nM | 12 nM
31 | CC(C)(C)S(=O)(=O)Nc1ccc(-c2c(C(N)=O)c3cc(F)c(OC(F)F)cc3n2C2CCCCC2)c(F)c1 | 2 nM | > 10000 nM | 3.09 µM·h | 70 | 23 nM | 2 nM | 0.4 nM
32 | Cc1cc(NS(=O)(=O)C(C)(C)C)ccc1-c1c(C(N)=O)c2cc(F)c(OC(F)F)cc2n1C1CCCC1 | 14 nM | 9100 nM |  |  |  |  | 
33 | CCc1cc2c(cc1F)c(C(N)=O)c(-c1ccc(NS(=O)(=O)C(C)(C)C)cn1)n2C1CCCCC1 | 68 nM | > 10000 nM |  |  |  |  | 
34 | CC(C)(C)S(=O)(=O)Nc1ccc(-c2c(C(N)=O)c3cc(F)c(C4CC4)cc3n2C2CCCC2)cc1 | 13 nM | > 10000 nM |  |  |  |  | 
35 | Cc1cc2c(cc1F)c(C(N)=O)c(-c1ccc(NS(=O)(=O)C(C)(C)C)cc1)n2-c1ccccc1 | 14 nM | > 10000 nM | 14.9 µM·h | 24 | 90 nM | 180 nM | 374 nM
36 | Cc1cc2c(cc1F)c(C(N)=O)c(-c1ccc(NS(=O)(=O)C(C)(C)C)cc1)n2-c1ccc(Cl)cc1 | 43 nM | > 10000 nM |  |  |  |  | 
37 | CC(C)(C)S(=O)(=O)Nc1ccc(-c2c(C(N)=O)c3cc(F)c(OC(F)F)cc3n2-c2ccccc2)c(F)c1 | 2 nM | > 10000 nM | 7.93 µM·h | 57 | 37 nM | 3 nM | 4 nM
38 | CC(C)(C)S(=O)(=O)Nc1ccc(-c2c(C(N)=O)c3cc(F)c(OC(F)F)cc3n2C2CCCC2)c(Cl)c1 | 2 nM | 4500 nM | 9.96 µM·h | 65 | 30 nM | 7 nM | 58 nM
